Results reported in US11357782B2, “Treprostinil administration by inhalation” (priority 2006, dated 2022).

Assays:
[1] = test system: patients with pre-existing gas exchange problems; experiment: Ventilation-perfusion matching by multiple inert gas elimination technique (MIGET); details: during NO-inhalation (20 ppm); mean±95% confidence interval; n=5
Description: The impact of SMI-TRE on ventilation-perfusion matching was assessed in five patients (30 μg TRE, n=2; 45 μg TRE, n=1; 60 μg TRE, n=2) with pre-existing gas exchange problems by use of the multiple inert gas elimination technique (MIGET), see e.g. Wagner PD, Saltzman HA, West JB. Measurement of continuous distributions of ventilation-perfusion ratios: theory. J Appl Physiol. 1974; 36:588-99; Ghofrani HA, Wiedemann R, Rose F, Schermuly RT, Olschewski H, Weissmann N et al. Sildenafil for treatment of lung fibrosis and pulmonary hypertension: a randomised controlled trial. Lancet. 2002; 360:895-900, both incorporated herein in their entirety.
The inhalation of a highly concentrated aerosol can be in theory prone to disturbances of gas exchange because the deposition of even small amounts of aerosol may deliver high doses locally and thereby antagonize the hypoxic pulmonary vasoconstriction in poorly ventilated areas. This would then lead to increased shunt flow or increase of low ventilation/perfusion (V/Q) areas. This question was addressed in five patients with the multiple inert gas elimination technique (MIGET), the gold-standard for intrapulmonary V/Q ratio determination. The MIGET patients were selected for pre-existing gas exchange limitations. […] Etiologies were iPAH (n=1), CTEPH (n=3), pulmonary fibrosis (n=1).

[2] = test system: patients with moderate to severe precapillary pulmonary hypertension; experiment: Study i) randomized crossover study of inhaled treprostinil vs inhaled iloprost, right heart catheter; format: in vivo, human
Description: All inhalations were performed with the […]® ultrasonic nebulizer ([…], Germany). Study i) was a randomized, open-label, single-blind crossover study. […] Patient characteristics and hemodynamic as well as gas exchange parameters are outlined in Table 3. Each patient inhaled both iloprost and treprostinil on the same day during right heart catheter investigation; the drugs were administered consecutively with a one hour interval between the drug applications. One half of the study patients initially inhaled treprostinil and then inhaled iloprost (n=22), while the other half initially inhaled iloprost and then inhaled treprostinil (n=22). Patients were randomized to one of the two groups and blinded as to the study drugs. Drug effects were monitored for 60 minutes after each inhalation.

Structure (SMILES)	shunt flow [1] [%]	area under the curve (AUC) of PVR decrease ([2]; 7.5 μg inhaled in 6 minutes, start of inhalation until 60 min, mean±95% confidence interval) [%]	gas exchange ([2]; after inhalation)	systemic arterial pressure (SAP) ([2]; after inhalation)	side effects (transient flush, headache) ([2]; iloprost 7.5 μg, treprostinil 7.5-15 μg)	maximum effect on PVR ([2]; iloprost vs treprostinil, pooled)	time to maximum effect on PVR after inhalation ([2]; pooled n=44, mean±SEM, p<0.0001) [min]
[N]=O [NO, nitric oxide]	5.4±3.0						
CC#CCC(C)[C@H](O)/C=C/[C@@H]1[C@H]2C/C(=C/CCCC(=O)O)C[C@H]2C[C@H]1O (stereo partly shown) [iloprost]		7.7±3.7	did not affect gas exchange	transient decrease	occasionally observed mild side effects	comparable	8 ± 1
